Measurements as given in article PMC5608804, “Stepwise Evolution Improves Identification of Diverse Peptides Binding to a Protein Target” (Scientific Reports, 2017).

Target: T1, streptavidin (Streptomyces avidinii, UniProt P22629)
T1 construct: purchased GE Healthcare (Little Chalfont, UK)
Assay: Cy5-streptavidin binding on HotSpot discovery array, 5-mer L-peptide library
Details: for S/B: signal to background ratio
Description: To identify hotspot sequences that bind to streptavidin (SA), we bound Cy5-SA to an array library of 2,476,099 5-mer L-peptides synthesized with 19 of 20 natural amino acids (excluding cysteine). The fluorescence signal intensity was aggregated across three independently synthesized arrays; then the 2,047 peptides with a signal-to-background ratio (S/B) >4 were selected. The data was further filtered to select 1,100 peptides for which signal intensities were highly correlated on all 3 arrays (the percentage of mean deviation to mean was <10%, see Supplementary dataset Table 2A). Most selected sequences (1,019 of 1,100) contained HP, PQ, or PM sequences: their presence would be expected in the well-known HPQ and HPM streptavidin binders[13]–[18].
The comprehensive peptide library included 2,476,099 5-mer peptides synthesized in a single copy with 19 of 20 L- or D-amino acids (excluding cysteine). Libraries were flanked on both N- and C-termini by linkers of 1 or 3 amino acids using a 3:1 glycine-serine mixture.
Cy5™-streptavidin (Cy5-SA) was purchased from GE Healthcare (Little Chalfont, UK). Freshly deprotected arrays were used in each experiment. Streptavidin binding to all arrays was performed with 0.5 µg/ml Cy5-SA either in binding buffer containing 10 mM Tris-HCl (pH 7.4), 1% alkali-soluble casein (EMD Millipore), 0.05% Tween-20 or in 10 mM Tris-HCl (pH 7.4), 4% BSA (Roche, Basel, Switzerland), 0.05% Tween-20 in a 30 mL PAP Jar container (Evergreen Scientific, Vernon, CA) overnight at 4° C. After incubation, arrays were washed in 20 mM Tris-HCl (pH 7.8), 0.2 M NaCl, 1% SDS or 1X TBS (pH 7.4) for 30 sec followed by a 1 min wash in water, and then dried by spinning in a microcentrifuge equipped with an array holder.
Cy5 fluorescence intensity of the arrays was measured with an MS200 scanner (Roche NimbleGen, Madison, WI) at resolution 2 µm, wavelength 635 nm, gain 25%, and laser intensity 100%. Cy5 signal intensities were extracted using Image Extraction Software (Roche NimbleGen). Data pre-processing, normalization, and statistical tests were performed using the language R. Data visualization and analysis was performed with the Spotfire 6.5.0 (Tibco, Boston, MA) software platform. Distance analysis and principle component analysis of distance matrices were performed with the R package PEPLIB[19].

[1] = 5-mer L-peptide library array, Cy5-streptavidin, from average of three arrays
[2] = 5-mer L-peptide library array, Cy5-streptavidin
[3] = average of three arrays, L-peptide 5-mer library
[4] = 5-mer L-peptide library array, Cy5-streptavidin, from the average of three arrays
[5] = 5-mer L-peptide library, from the average of three arrays

T1 sequence (P22629 25-183): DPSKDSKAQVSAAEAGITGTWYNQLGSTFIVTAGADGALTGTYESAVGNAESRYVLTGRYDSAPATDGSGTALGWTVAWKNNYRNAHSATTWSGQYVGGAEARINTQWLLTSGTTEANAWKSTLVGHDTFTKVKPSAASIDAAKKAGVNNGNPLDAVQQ

RMHPM
S/B (signal to background ratio) [1]: 37.9

VPHPM
S/B (signal to background ratio) [1]: 45.9

GHPMF
S/B [2]: 15.1

NNHPQ
S/B (signal to background ratio) [1]: 137.3

MAKHF [L-amino acid 5-mer array peptide]
S/B (signal to background ratio) [3]: 5.4
S/B [2]: 5.4

NHPQA
S/B (signal to background ratio) [1]: 121.8

TVHPQ
S/B (signal to background ratio) [4]: 96.5

HPMYP
S/B [2]: 15.8

HPMNE
S/B [2]: 5.7

ANHPM
S/B (signal to background ratio) [1]: 47.0

WHPQP
S/B [2]: 10.7

HPQYA
S/B (signal to background ratio) [1]: 20.2

HHPQG
S/B (signal to background ratio) [4]: 108.6

TGHPM
S/B (signal to background ratio) [1]: 53.4

VFHPM
S/B (signal to background ratio) [1]: 53.0

HPQNV
S/B (signal to background ratio) [4]: 84.4

FHPQS
S/B (signal to background ratio) [4]: 97.1

HPMRT
S/B (signal to background ratio) [5]: 4.3

SHPMA
S/B (signal to background ratio) [4]: 60.4

HPQMS
S/B (signal to background ratio) [1]: 20.7

FHPMF
S/B [2]: 14.7

DPHPQ
S/B (signal to background ratio) [4]: 88.5

MPWRN [L-amino acid 5-mer array peptide]
S/B (signal to background ratio) [3]: 5.2
S/B [2]: 5.2

NPHPM
S/B (signal to background ratio) [1]: 40.3

MHPQS
S/B (signal to background ratio) [4]: 75.9

HPQFF
S/B (signal to background ratio) [4]: 71.6

HPLPW
S/B [2]: 8.0

MNHPQ
S/B (signal to background ratio) [1]: 166.1

HPQAV
S/B [2]: 17.8

FHPQQ
S/B (signal to background ratio) [1]: 49.0

HPMRN
S/B [2]: 8.8

HPMPW
S/B [2]: 8.2

WHPPQ
S/B [2]: 9.3

PIPDW [L-amino acid 5-mer array peptide]
S/B (signal to background ratio) [5]: 4.1
S/B (signal to background ratio) [3]: 4.1

HPQPN
S/B [2]: 5.5

DHPQN
S/B (signal to background ratio) [4]: 72.7

NYHPQ
S/B (signal to background ratio) [1]: 182.7

PHPQY
S/B (signal to background ratio) [1]: 41.4

WHPMF
S/B (signal to background ratio) [1]: 27.4

HPQIN
S/B [2]: 12.2

HPQPG
S/B [2]: 5.6

QHPQA
S/B (signal to background ratio) [1]: 138.2

LHPMI
S/B [2]: 5.3

LSVYH [L-amino acid 5-mer array peptide]
S/B (signal to background ratio) [3]: 5.3
S/B [2]: 5.3

RRHPM
S/B (signal to background ratio) [1]: 31.6

HPMYY
S/B [2]: 8.3

HPQHN
S/B (signal to background ratio) [1]: 28.0

IVHPQ
S/B (signal to background ratio) [4]: 94.3

STHPQ
S/B (signal to background ratio) [1]: 139.4

MHPMM
S/B [2]: 9.8

HPMGH
S/B [2]: 15.2

RTHPM
S/B (signal to background ratio) [1]: 49.0

WPHPM
S/B (signal to background ratio) [4]: 95.9

HPQFK
S/B [2]: 17.7

HNHPQ
S/B (signal to background ratio) [1]: 146.9

KHPMM
S/B (signal to background ratio) [5]: 4.9

HPQNE
S/B (signal to background ratio) [1]: 48.0

HPMRF
S/B (signal to background ratio) [5]: 4.6

TTHPM
S/B (signal to background ratio) [1]: 29.8

QKHPQ
S/B (signal to background ratio) [4]: 86.0

EPHPM
S/B (signal to background ratio) [1]: 23.1

HPMMF
S/B (signal to background ratio) [5]: 5.1

FRHPM
S/B (signal to background ratio) [4]: 89.2

GHPMK
S/B (signal to background ratio) [5]: 4.0

HPQGW
S/B (signal to background ratio) [4]: 60.3

NYHPM
S/B (signal to background ratio) [1]: 52.9

PKHPQ
S/B (signal to background ratio) [4]: 80.7

VEHPQ
S/B (signal to background ratio) [1]: 55.4

YWTDG [L-amino acid 5-mer array peptide]
S/B (signal to background ratio) [5]: 4.7
S/B (signal to background ratio) [3]: 4.7

MAAHF [L-amino acid 5-mer array peptide]
S/B (signal to background ratio) [1]: 25.6
S/B (signal to background ratio) [3]: 25.6

MGHPQ
S/B (signal to background ratio) [1]: 175.3

QRHPM
S/B (signal to background ratio) [1]: 57.2

VHPQF
S/B (signal to background ratio) [1]: 135.2

HPQAG
S/B (signal to background ratio) [1]: 125.6

HPQNF
S/B (signal to background ratio) [4]: 94.0

HPMNM
S/B [2]: 9.1

AHPQP
S/B (signal to background ratio) [5]: 4.1

LSHPM
S/B (signal to background ratio) [1]: 55.5

HPQDG
S/B [2]: 15.1

HPQVP
S/B (signal to background ratio) [4]: 62.1

TEHPQ
S/B (signal to background ratio) [1]: 57.0

HPQSH
S/B [2]: 12.3

PLPDD [L-amino acid 5-mer array peptide]
S/B (signal to background ratio) [5]: 4.9
S/B (signal to background ratio) [3]: 4.9

ATHPQ
S/B (signal to background ratio) [1]: 135.7

YAHPM
S/B (signal to background ratio) [4]: 87.4

HPQFY
S/B (signal to background ratio) [4]: 70.7

VHPQG
S/B (signal to background ratio) [4]: 101.6

HVHPQ
S/B (signal to background ratio) [4]: 105.7

IVHPM
S/B (signal to background ratio) [1]: 23.5

ANHPQ
S/B (signal to background ratio) [4]: 115.8

RHPQQ
S/B (signal to background ratio) [1]: 43.6

HPQWG
S/B (signal to background ratio) [1]: 26.9

SHPQN
S/B (signal to background ratio) [1]: 135.7

LGKYH [L-amino acid 5-mer array peptide]
S/B (signal to background ratio) [3]: 6.7
S/B [2]: 6.7

YPHPM
S/B (signal to background ratio) [4]: 98.4

WKHPM
S/B (signal to background ratio) [4]: 66.5

HPMKN
S/B [2]: 8.2

LATFH [L-amino acid 5-mer array peptide]
S/B (signal to background ratio) [3]: 6.2
S/B [2]: 6.2

HPQSI
S/B [2]: 7.3

PHPMV
S/B (signal to background ratio) [1]: 24.7

RHPQF
S/B (signal to background ratio) [1]: 125.0

HPMSG
S/B (signal to background ratio) [1]: 45.4

NWDQW [L-amino acid 5-mer array peptide]
S/B (signal to background ratio) [3]: 6.7
S/B [2]: 6.7

NAHPQ
S/B (signal to background ratio) [1]: 121.9

HPQNN
S/B (signal to background ratio) [4]: 112.8

QSHPQ
S/B (signal to background ratio) [1]: 135.3

SHPMS
S/B (signal to background ratio) [1]: 25.8

MVHPM
S/B (signal to background ratio) [1]: 33.8

YHPQL
S/B [2]: 6.4

RHPQG
S/B (signal to background ratio) [1]: 124.2

YHPQT
S/B (signal to background ratio) [1]: 25.8

IYHPQ
S/B (signal to background ratio) [1]: 169.4

IAHPM
S/B (signal to background ratio) [1]: 46.1

AHPQQ
S/B (signal to background ratio) [1]: 34.0

WEHPQ
S/B (signal to background ratio) [4]: 98.3

FSHPM
S/B (signal to background ratio) [4]: 91.4

LHPQN
S/B (signal to background ratio) [4]: 105.2

HPMQF
S/B (signal to background ratio) [5]: 4.9

TAHPQ
S/B (signal to background ratio) [1]: 120.0

HPMRG
S/B [2]: 9.3

FHPQY
S/B (signal to background ratio) [1]: 56.4

QHHPQ
S/B (signal to background ratio) [1]: 136.3

SHPQQ
S/B (signal to background ratio) [1]: 41.4

VWHPM
S/B (signal to background ratio) [4]: 71.2

HPQNY
S/B (signal to background ratio) [4]: 103.6

QHPQI
S/B [2]: 14.9

DDHPQ
S/B (signal to background ratio) [1]: 31.9

YRHPQ
S/B (signal to background ratio) [1]: 185.8

HPMST
S/B (signal to background ratio) [5]: 4.2

HPQGP
S/B (signal to background ratio) [1]: 162.1

SSHPM
S/B (signal to background ratio) [1]: 50.5

GKHPQ
S/B (signal to background ratio) [4]: 73.5

RPHPQ
S/B (signal to background ratio) [1]: 133.3

HPQVS
S/B (signal to background ratio) [4]: 77.3

PHPQT
S/B (signal to background ratio) [1]: 24.1

FAHPQ
S/B (signal to background ratio) [1]: 186.9

MHPQV
S/B (signal to background ratio) [1]: 55.8

WYHHP
S/B (signal to background ratio) [5]: 5.0

MHPQF
S/B (signal to background ratio) [4]: 107.7

YSHPM
S/B (signal to background ratio) [4]: 69.2

HPMGW
S/B [2]: 18.2

IRHPQ
S/B (signal to background ratio) [1]: 165.9

HSHPM
S/B (signal to background ratio) [1]: 54.9

SHHPQ
S/B (signal to background ratio) [1]: 155.1

LGPFH [L-amino acid 5-mer array peptide]
S/B (signal to background ratio) [1]: 51.1
S/B (signal to background ratio) [3]: 51.1

THPQK
S/B [2]: 14.5

ETHPQ
S/B (signal to background ratio) [1]: 49.0

MAFHF [L-amino acid 5-mer array peptide]
S/B (signal to background ratio) [5]: 4.8
S/B (signal to background ratio) [3]: 4.8

HPQNK
S/B (signal to background ratio) [1]: 28.4

HPMRH
S/B (signal to background ratio) [5]: 4.9

PSHPQ
S/B (signal to background ratio) [1]: 136.6

LASYH [L-amino acid 5-mer array peptide]
S/B (signal to background ratio) [1]: 25.7
S/B (signal to background ratio) [3]: 25.7

DHPMM
S/B [2]: 5.6

WVHPM
S/B (signal to background ratio) [4]: 78.5

YHPQQ
S/B (signal to background ratio) [4]: 76.2

TPHPM
S/B (signal to background ratio) [1]: 44.1

VLHPQ
S/B (signal to background ratio) [4]: 115.6

PAWAH [L-amino acid 5-mer array peptide]
S/B (signal to background ratio) [1]: 50.0
S/B (signal to background ratio) [3]: 50.0

HPQNR
S/B (signal to background ratio) [1]: 50.5

IKHPM
S/B (signal to background ratio) [1]: 19.0

HHPMF
S/B (signal to background ratio) [1]: 19.8
